Test results taken from patent US10568949B2, “Method of eliciting an anti-tumor immune response with controlled delivery of TLR agonists in porous polymerlc devices” (President and Fellows of Harvard College, priority 2008, dated 2020).
“And” between values parts separate entries of the source, which are not always exact repeats. Equal values may be shown once.

How the values were obtained:
host DCs = experiment: In vivo DC recruitment and activation in PLG matrices (FACS); set-up: species or system C57BL/6J mice; details: for proportion of CD8+ cDCs in DC population at vaccine site / proportion of pDCs in DC population at vaccine site / total DC numbers in situ: antigen-loaded matrices, CpG and GM-CSF together versus GM-CSF alone
Protocol: Blank scaffolds and scaffolds containing GM-CSF with or without 10 μg PEI-ODN control (5′-tcc atg agc ttc ctg agc tt-3′) (SEQ ID NO: 6) or 10 μg PEI-CpG-ODN condensate loaded scaffolds were implanted into subcutaneous pockets on the back of 7-9 week old male C57BL/6J mice. For histological examination scaffolds were excised and fixed in Z-fix solution, embedded in paraffin, and stained with hematoxylin and eosin. To analyze DC recruitment, scaffolds were excised and the ingrown tissue was digested into single cell suspensions using a collagenase solution (Worthingtion, 250 U/ml) that was agitated at 37° C. for 45 minutes. The cell suspensions were then poured through a 40 μm cell strainer to isolate cells from scaffold particles and the cells were pelleted and washed with cold PBS and counted using a Z2 coulter counter (Beckman Coulter). The resultant cell populations were then stained with primary antibodies (BD Pharmingen, San Diego, Calif.) conjugated to fluorescent markers to allow for analysis by flow cytometry. APC-conjugated CD11c (dendritic cell marker) and PE-conjugated CD86 (B7, costimulatory molecule) stains were conducted for DC recruitment analysis, and APC-conjugated CD11c, FITC-conjugated CCR7, and PE-conjugated MHCII stains were conducted for DC programming analysis. Cells were gated according to positive FITC, APC and PE using isotype controls, and the percentage of cells staining positive for each surface antigen was recorded. To track in vivo DC emigration from scaffolds toward the inguinal lymph nodes, 250 μg of lyophilized fluoroscein isothiocyanate (FITC) (Molecular Probes, Carlsbad, Calif.) was incorporated into scaffolds by mixing with PLG microspheres before scaffold processing, and FITC was also applied by incubating scaffolds with 330 ul of 3% FITC solution for 30 min. […] Cell suspensions from LNs were prepared by digestion in collagenase for 30 min and pressing of the tissue through 70 μm cell strainers, and examined for CD11c(+)FITC(+) cell numbers by flow cytometry.
Blank PLG matrices and matrices containing 3000 ng of GM-CSF alone or in combination with either 1, 10, 50, or 100 μg of CpG-ODN (studies were also performed with tumor lysates copresented with either 3000 ng of GM-CSF or 100 μg of CpG-ODN alone or in combination) were implanted into subcutaneous pockets on the back of 7- to 9-week-old male C57BL/6J mice. For histological examination, scaffolds were excised and fixed in Z-fix solution (Anatech), embedded in paraffin, and stained with hematoxylin and eosin (H&E). To analyze DC recruitment, scaffolds were excised at various time points and digested the ingrown tissue into single-cell suspensions with a collagenase solution (250 U/ml; Worthington) that was agitated at 37° C. for 45 min. The cell suspensions were then poured through a 40-μm cell strainer to isolate cells from scaffold particles, and the cells were pelleted and washed with cold PBS and counted with a Z2 coulter counter (Beckman Coulter). To assess DC infiltration and activation, subsets of the total cell population isolated from PLG matrices were stained with primary antibodies (BD Pharmingen) conjugated to fluorescent markers to allow for analysis by flow cytometry. Allophycocyanin (APC)-conjugated CD11c (DC marker) and phycoerythrin (PE)-conjugated CD86 (B7, costimulatory molecule) stains were conducted for DC recruitment analysis, and APC-conjugated CD11c, fluorescein isothiocyanate (FITC)-conjugated CCR7, and PE-conjugated MHCII stains were conducted for DC programming analysis. To further delineate the presence of specific DC subsets, cells were stained with APC-conjugated CD11c and PE-conjugated PDCA-1 (pDC marker), APC-conjugated CD11c and PE-conjugated CD8 (CD8 DCs), or APC-conjugated CD11c and FITC-conjugated CD11b (CD11b DCs).

[1] = test system: IL-12p70, IFN-α, IFN-γ, and TGF-β; experiment: In vivo cytokine concentrations at matrix implant site (ELISA); set-up: species or system C57BL/6J mice
Protocol: After centrifugation, the concentrations of IL-12, IFN-α, IFN-γ, and TGF-β in the supernatant were then analyzed with enzyme-linked immunosorbent assay (R&D Systems) according to the manufacturer's instructions.

TRP2-specific CTLs = TRP2-specific CTLs in spleens (pentamer staining); type: in vivo, C57BL/6J mice; details: GM-CSF, antigen
From the text: […] These cells were initially stained with APC-H-2Kb-TRP2 pentamers (Proimmune) and subsequently stained with PE-conjugated monoclonal antibody to CD8 (BD Pharmingen) before being analyzed by flow cytometry.

B16-F10 melanoma tumors = experiment: T-cell infiltration into tumor tissue (immunohistochemistry); type: in vivo, C57BL/6J mice
Protocol: PLG scaffolds with melanoma tumor lysates and various dosages of GM-CSF and/or 10 μg PEI-CpG-ODN condensates were implanted subcutaneously into the lower left flank of C57BL/6J mice. Animals were challenged 14 days later with a subcutaneous injection of 10^5 B16-F10 melanoma cells (ATCC, Manassas, N.J.) in the back of the neck. Animals were monitored for the onset of tumor growth (approximately 1 mm^3) and sacrificed for humane reasons when tumors grew to 20-25 mm (longest diameter). For histological examination, tumors were biopsied at days 20-25 after injection and fixed in Z-fix (Anatech, Battle Creek, Mich.) and stained for hematoxylin and eosin. To examine tumor tissue for T-cell infiltration, immunoperoxidase staining was performed using the avidin-biotin-peroxidase Vectastain Elite ABC kit (Vector Laboratories). The primary antibodies used were GK 1.5 (CD4), and 53-6.72 (CD8) and staining was developed using DAB+ substrate chromogen (DAKO, Carpinteria, Calif.). Sections from tumor samples (n=3 or 4) were visualized at 40× and 100× with a Nikon light microscope (Indianapolis, Ind.) and positively stained T-cells were counted manually.

dendritic cells = experiment: Example 7: DC recruitment and activation in matrices with GM-CSF and TLR agonists (FACS, day 7); type: in vivo, C57BL/6J mice
From the text: The cell suspensions were then poured through a 40 μm cell strainer to isolate cells from scaffold particles and the cells were pelleted and washed with cold PBS and counted using a Z2 coulter counter (Beckman Coulter). To assess, DC infiltration and activation, subsets of the total cell population isolated from PLG matrices were then stained with primary antibodies (BD Pharmingen, San Diego, Calif.) conjugated to fluorescent markers to allow for analysis by flow cytometry. APC-conjugated CD11c (dendritic cell marker), FITC-conjugated MHCII and PE-conjugated CD86 (B7, costimulatory molecule) stains were conducted for DC recruitment and activation analysis. To further delineate the presence of specific DC subsets, cells were also stained with APC-conjugated CD11c and PE-conjugated PDCA-1 (plasmacytoid DC marker) or APC-conjugated CD11c and PE-conjugated CD8 (CD8 DCs). To assess T-cell infiltration PE-Cy7 conjugated CD3 stains were performed in conjunction with APC-conjugated CD8a (CD8 T cells), and PE-conjugated FoxP3 (Treg) and analyzed with flow cytometry. Cells were gated according to single positive FITC, APC and PE stainings and using isotype controls. The percentage of cells staining positive for each surface antigen was recorded. To examine the ability of PLG matrices to recruit and activate dendritic cells in vivo, matrices delivering GM-CSF in combination with danger signals were implanted subcutaneously into the backs of C57BL/6J mice. The magnitude of DC infiltration and activation into the matrices was determined by FACS analysis of cell populations isolated from the polymeric material after 7 days.

B16-F10 melanoma cells = experiment: Prophylactic vaccination, B16-F10 melanoma tumor challenge; details: for mouse survival: antigen matrices, CpG and GM-CSF together versus GM-CSF alone
Protocol: PLG scaffolds with melanoma tumor lysates and various dosages of GM-CSF and/or 10 μg PEI-CpG-ODN condensates were implanted subcutaneously into the lower left flank of C57BL/6J mice. Animals were challenged 14 days later with a subcutaneous injection of 10^5 B16-F10 melanoma cells (ATCC, Manassas, N.J.) in the back of the neck. Animals were monitored for the onset of tumor growth (approximately 1 mm^3) and sacrificed for humane reasons when tumors grew to 20-25 mm (longest diameter).
PLG scaffolds with melanoma tumor lysates and various dosages of GM-CSF and/or various quantities of PEI-CpG-ODN condensates were implanted subcutaneously into the lower left flank of C57BL/6J mice. For prophylactic vaccinations, animals were challenged 14 days later with a subcutaneous injection of 10^5 B16-F10 melanoma cells [American Type Culture Collection (ATCC)] in the back of the neck. Animals were monitored for the onset of tumor growth (˜1 mm^3) and killed for humane reasons when tumors grew to 20 to 25 mm (longest diameter).

[2] = optimal CpG-ODN doses (10-25 μg) opposed by GM-CSF 3 μg, in vivo
[3] = tumor lysate with GM-CSF and CpG, day 10
[4] = optimal GM-CSF exposure (400 ng) with tumor antigen

Question: For CpG-ODN 1826, which “numbers of resident pDCs” value (host DCs; 3000 ng GM-CSF, 10 μg CpG-ODN) is on record?
Answer: 520,000 cells

Question: And the “numbers of resident pDCs” value (host DCs; 3000 ng GM-CSF, 100 μg CpG-ODN)?
Answer: 1,200,000 cells and 1,100,000 cells

Question: What about the “increase in CCR7 expressing DCs in matrices over GM-CSF or CpG-ODN delivery alone” value (host DCs; CpG-ODN with GM-CSF) of the same molecule?
Answer: ~4.5 fold

Question: What about the “increase in MHCII expressing DCs in matrices over GM-CSF or CpG-ODN delivery alone” value (host DCs; CpG-ODN with GM-CSF) of the same molecule?
Answer: approximately 2.5 fold

Question: What about the “total cells at the matrix site that were CD8(+)” value (host DCs; antigen presenting matrices with GM-CSF and CpG-ODN) of the same molecule?
Answer: 10.3%

Question: What about the “proportion of CD8+ cDCs in DC population at vaccine site” value (host DCs; day 10, listed as CpG) of the same molecule?
Answer: ~14% and ~9.4%

Question: What about the “proportion of pDCs in DC population at vaccine site” value (host DCs; day 10, listed as CpG) of the same molecule?
Answer: ~31% and ~38%

Question: And the “total DC numbers in situ” value (host DCs; listed as CpG)?
Answer: 3.0±0.6 million DCs and 3.05±0.55 million DCs

Question: And the “optimal CpG-ODN dose for DC activation in vivo” value (host DCs; in presence of high GM-CSF levels)?
Answer: 10 to 25 µg

Question: And the “numbers of activated DCs generated” value (host DCs; infection-mimicking system, CpG-ODN ~10-25 μg with GM-CSF)?
Answer: > 10^6

Question: And the DC activation (host DCs; [2])?
Answer: 44%

Question: And the “number of activated DCs” value (host DCs; [2])?
Answer: 1.5×10^6 cells

Question: What about the “increase (factor / fold) in pDCs over blank controls” value (host DCs; [3]) of the same molecule?
Answer: 10

Question: What about the “increase (factor / fold) in pDCs over matrices without lysate/antigen” value (host DCs; [3]) of the same molecule?
Answer: 2

Question: What about the “increase (factor / fold) in CD8+ DCs over blank matrices” value (host DCs; tumor lysates with CpG-ODN and GM-CSF) of the same molecule?
Answer: 9

Question: What about the “number of CD8+ DCs (CD11c(+)CD8(+) cDCs) in matrices” value (host DCs; tumor lysates with CpG-ODN, no GM-CSF) of the same molecule?
Answer: 200,000

Question: What about the local production of IFN-α ([1]; high doses of CpG-ODN) of the same molecule?
Answer: ~1010 pg/mL

Question: And the local production of IL-12 ([1]; high doses of CpG-ODN)?
Answer: 150 pg/mL

Question: And the “TRP2-specific CD8 T cells” value (TRP2-specific CTLs; CpG dose 50 μg)?
Answer: 0.3 % splenocytes

Question: And the “increase in CD8(+) T-cell infiltration into tumors over controls” value (B16-F10 melanoma tumors; infection mimics, 10 μg CpG-ODN dose)?
Answer: ~3 fold

Question: What about the “CD8(+) DCs at implant site, higher than controls” value (dendritic cells; with GM-CSF) of the same molecule?
Answer: 9 fold

Question: What about the “CD11c(+) cells positive for MHCII(+) and CD86(+), of total cells recruited” value (dendritic cells; with GM-CSF) of the same molecule?
Answer: approximately 30%

Question: And the “enhancement of total number of recruited DCs compared to GM-CSF delivery alone” value (dendritic cells; with GM-CSF)?
Answer: 2.5 fold

Question: What about the “increase in total number of activated DCs relative to control matrices” value (dendritic cells; with GM-CSF) of the same molecule?
Answer: ~23 fold

Question: What about the mouse survival (B16-F10 melanoma cells) of the same molecule?
Answer: 90%

Question: And the survival rate (B16-F10 melanoma cells; lysate, GM-CSF and 10 μg CpG-ODN)?
Answer: 50% and 45%

Question: What about the survival rate (B16-F10 melanoma cells; lysate, GM-CSF and 10 μg CpG-ODN, listed as CpG) of the same molecule?
Answer: 50%

Question: What about the survival rate (B16-F10 melanoma cells; lysate, GM-CSF and 50 μg CpG-ODN) of the same molecule?
Answer: 60%

Question: What about the survival rate (B16-F10 melanoma cells; lysate, GM-CSF and 100 μg CpG-ODN) of the same molecule?
Answer: 90%

Question: And the “vaccinated mice surviving B16-F10 challenge” value (B16-F10 melanoma cells; tumor lysates with CpG-ODN (1, 10, 50 or 100), no GM-CSF)?
Answer: 10 to 30% and 20% and 10-30%

B1: granulocyte macrophage colony stimulating factor (protein, UniProt P01587 18-141, looked up)
Granulocyte-macrophage …: APTRSPITVTRPWKHVEAIKEALNLLDDMPVTLNEEVEVVSNEFSFKKLTCVQTRLKIFEQGLRGNFTKLKGALNMTASYYQTYCPPTPETDCETQVTTYADFIDSLKTFLTDIPFECKKPGQK
notes: cytokine encapsulated in and released from PLG matrices to recruit DCs
Question: Which results are given for B1?
Answer: day at which activation state of DCs peaked (host DCs; 3000 ng GM-CSF): 10 days; numbers of resident pDCs (host DCs; 3000 ng GM-CSF, 0 μg CpG-ODN): 190,000 cells; increase (factor / fold) in CD11c DCs recruited vs blank PLG matrices (host DCs; 3000 ng GM-CSF, day 14): ~8; day at which activation state of DCs peaked (host DCs; 7000 ng GM-CSF): 28 days; matrix-resident DCs that were CD11b+ (host DCs; GM-CSF delivery): ~87%; number of DCs residing in the material (host DCs; GM-CSF delivery): ~10^6 cells; total DC numbers in situ (host DCs): 4.2±0.9 million DCs and 2.67±0.64 million DCs; proportion of CD8+ cDCs in DC population at vaccine site (host DCs; day 10): 5.5%; proportion of pDCs in DC population at vaccine site (host DCs; day 10): 7%; number of activated DCs (host DCs; best GM-CSF-based vaccine): ~240,000 DCs; recruited DCs that were activated (host DCs; best GM-CSF-based vaccine): approximately 26%; factor of increase in TGFβ concentrations at vaccine site ([1]; GM-CSF and tumor lysate in matrix): 10; TRP2-specific CD8 T cells (TRP2-specific CTLs; CpG dose 0 μg): 0.2 % splenocytes; increase in CD8(+) cytotoxic T-cell numbers in tumors over blank controls (B16-F10 melanoma tumors; appropriate GM-CSF presentation with antigen): 2 fold; CD11c(+) cells in matrices (dendritic cells; GM-CSF alone): 241000 cells; CD86 expression (dendritic cells; GM-CSF alone): 4.58 % of CD11c(+) cells; MHCII expression (dendritic cells; GM-CSF alone): 2.57 % of total CD11c(+) cells; animals cured / with protective anti-tumor immunity (B16-F10 melanoma cells; GM-CSF with antigen, optimal GM-CSF dose): 23%; mouse survival (B16-F10 melanoma cells): 20%; animal survival (B16-F10 melanoma cells; lysate, GM-CSF, CpG dose 0 μg): 23%; delay of tumor formation (B16-F10 melanoma cells; optimal GM-CSF dose with antigen, in 50% of the animals): approximately 40 days; increase in average time before tumor formation compared to antigen alone (B16-F10 melanoma cells; [4]): 3 fold; increase in average time before tumor formation over non-optimal GM-CSF exposure (B16-F10 melanoma cells; [4]): ~2 fold
